Holding throughout (type): physicochemical
The nature of series [1]: Test on solubility in ethanol. As to conditions: 40 mg in ethanol 2 mL, ultrasonically treated one minute, room temperature 30 minutes or more, absorbance at 330 nm. The procedure: [Test on Solubility in Ethanol]
The crystal (40 mg) obtained in Example 1 was added to ethanol (2 mL), and was ultrasonically treated for one minute. The solution was left at room temperature for 30 minutes or more, and thereafter the resulting precipitate was centrifuged and the resulting supernatant was diluted with dimethyl sulfoxide to analyze the concentration at an absorbance at 330 nm.
The crystal (40 mg) obtained in Example 2 was added to ethanol (2 mL), and was ultrasonically treated for one minute. The solution was left at room temperature for 30 minutes or more, and thereafter the resulting precipitate was centrifuged and the resulting supernatant was diluted with dimethyl sulfoxide to analyze the concentration at an absorbance at 330 nm.
The crystal (40 mg) obtained in Comparative Example 1 was added to ethanol (2 mL), and was ultrasonically treated for one minute. The solution was left at room temperature for 30 minutes or more, and thereafter the resulting precipitate was centrifuged and the resulting supernatant was diluted with dimethyl sulfoxide to analyze the concentration at an absorbance at 330 nm. The concentration was 1.4 mg/ML.

Series [2] in a line: Dispersibility in ethanol: gelation test. As to conditions: for Homogeneity of ethanol mixture (upper and lower portions) / Appearance of ethanol mixture after standing: 20 mg in ethanol 2 mL; for Homogeneity of ethanol mixture (upper and lower portions): left at 20° C. for two to three hours; for Appearance of ethanol mixture after standing: ultrasonically treated one minute, left at 20° C. for two hours; for Appearance after adding ethanol mixture to water: 20 μL of gelled product / ethanol mixture added to water 1 mL. Here is the method: [Dispersibility in Ethanol: Gelation Test]
The crystal (20 mg) obtained in Example 1 was added to ethanol (2 mL), and was ultrasonically treated for one minute. […] The gelled product was generated through the following process: the reduced PQQ crystals according to the present invention turned into fibers, and alcohol was encapsulated between these fibers in the form of a net to generate a gel.
The solid (20 mg) obtained in Comparative Example 1 was added to ethanol (2 mL), and was ultrasonically treated for one minute.

A short description of series [3]: Test on solubility in water. As to conditions: 30 mg in water 1 mL, ultrasonically treated one minute, room temperature 30 minutes or more, absorbance at 310 nm. Here is the method:
[Test on Solubility in Water]
The crystal (30 mg) obtained in Example 1 was added to water (1 mL), and was ultrasonically treated for one minute. The solution was left at room temperature for 30 minutes or more, and thereafter the resulting precipitate was centrifuged and the resulting supernatant was diluted with water to analyze the concentration at an absorbance at 310 nm. The concentration was 0.13 mg/mL.
The crystal (30 mg) obtained in Example 2 was added to water (1 mL), and was ultrasonically treated for one minute. The solution was left at room temperature for 30 minutes or more, and thereafter the resulting precipitate was centrifuged and the resulting supernatant was diluted with water to analyze the concentration at an absorbance at 310 nm. The concentration was 0.14 mg/mL.
The solid (30 mg) obtained in Comparative Example 1 was added to water (1 mL), and was ultrasonically treated for one minute. The solution was left at room temperature for 30 minutes or more, and thereafter the resulting precipitate was centrifuged and the resulting supernatant was diluted with water to analyze the concentration at an absorbance at 310 nm. The concentration was 0.019 mg/mL.

A short description of series [4]: Test on stability of crystal (dispersed in water). To be noted: 0.2 g mixed with water 1 mL, room temperature. Here is the method:
[Test on Stability of Crystal (Dispersed in Water)]
The crystal (0.2 g) obtained in Example 1 was mixed with water (1 mL).
The solid (0.2 g) obtained in Comparative Example 1 was mixed with water (1 mL).
The crystal (0.2 g) obtained in Comparative Example 2 was mixed with water (1 mL).

As for `O=C(O)c1cc(C(=O)O)c2c(n1)c(O)c(O)c1cc(C(=O)O)[nH]c12` [Example 1, reduced pyrroloquinoline quinone], the “Solubility in ethanol (concentration of supernatant)” value (“Solubility in ethanol” for short) in series [1] amounted to 8500 µg/mL. Further, in series [2], the “Homogeneity of ethanol mixture (upper and lower portions)” value was “homogenous without any difference between upper and lower portions”; the “Appearance of ethanol mixture after standing” value is on record as “orange gelled product”; the “Appearance after adding ethanol mixture to water” value is on record as “yellow homogenous dispersion”. Further, the “Dispersibility (overall conclusion)” value in series [2] (ethanol gelation test, compared with Comparative Example 1) was “significantly high dispersibility”. Also, in series [3], the “Solubility in water (concentration of supernatant)” value (“Solubility in water” below) is 130 µg/mL. Further, in series [4], the “Appearance dispersed in water after one hour” value was “yellow homogenous dispersion” and the “Appearance dispersed in water after two days” value is reported as “the dispersion remained the same”.

Turning to `O=C(O)c1cc(C(=O)O)c2c(n1)c(O)c(O)c1cc(C(=O)O)[nH]c12` [Comparative Example 1, reduced pyrroloquinoline quinone], the “Solubility in ethanol” value in series [1] stood at 1400 µg/mL. In series [2], the “Homogeneity of ethanol mixture (upper and lower portions)” value was “had a difference between the upper and lower portions”; the “Appearance of ethanol mixture after standing” value is “a black solid was sedimented and the solution was slightly yellowed”; the “Appearance after adding ethanol mixture to water” value is “a solution having a black solid sedimented therein”. For the same compound, the “Solubility in water” value in series [3] was determined as 19 µg/mL. Moreover, in series [4], the “Appearance dispersed in water after one hour” value was “a solution having a black solid sedimented therein”.

As to `O=C(O)c1cc(C(=O)O)c2c(n1)c(O)c(O)c1cc(C(=O)O)[nH]c12` [Comparative Example 2, reduced pyrroloquinoline quinone], in series [4], the “Appearance dispersed in water after one hour” value is on record as “dark red dispersion”; the “Appearance dispersed in water after two days” value is “a black precipitate was generated and the solution was not homogenous”.

As for `O=C(O)c1cc(C(=O)O)c2c(n1)c(O)c(O)c1cc(C(=O)O)[nH]c12` [Example 2, reduced pyrroloquinoline quinone], the “Solubility in ethanol” value in series [1] worked out at 3200 µg/mL. Moreover, the “Solubility in water” value in series [3] was 140 µg/mL.
